In PMC10364322, “Evaluation of chronic drug-induced electrophysiological and cytotoxic effects using human-induced pluripotent stem cell-derived cardiomyocytes (hiPSC-CMs)” (Frontiers in Pharmacology, 2023):
Read-outs that look alike come from different tables or passages of the source.

Experiments:
[1] = system: hiPSC-CMs (iCell-Cardiomyocytes^2)
Method: (§1) Cells were seeded according to the instructions of the cell provider, in fibronectin-coated 48-well MEA plates (Axion Cytoview Plates, M768-tMEA-48B) at a density suited to form a monolayer (i.e., 50 K/well) and maintained in culture in a stage incubator (37°C, 5% CO2).
(§2) At least 4 h before the beginning of the baseline measurements, a full medium exchange was performed (to a final volume of 400 µL per well). Neat compounds were dissolved in 100% DMSO at a stock concentration 1000-fold the highest target concentration. […] Afterwards, these stock solutions were diluted with Maintenance medium (CDi), to 10-fold the intended concentration. The final DMSO concentration in test solutions and vehicle control was 0.1%.
(§3) Spontaneous electrical activity was recorded in hiPSC-CMs monolayers as field potentials using the Maestro Pro MEA instrument (Axion Biosystems, Atlanta, GA, United States), which allows the maintenance of accurate temperature and CO2 levels (37°C, 5% CO2). After the plate was placed in the Maestro Pro and allowed to equilibrate for about 10 min, baseline acquisition of field potential and impedance signals was initiated and lasted for 5 min each. […] As impedance measures resistance of an applied alternating current through the hiPSC-CMs monolayer, a reduction in the attachment of hiPSC-CMs to the bottom of the well due to cell death or changes in the monolayer morphology, causes a drop in the impedance signal.
The potential presence of various arrhythmic events was evaluated and noted during the data analysis.
(§4) After the acquisition of all timepoint measurements, raw data were loaded into the data analysis software Axion Cardiac Analysis Tool (V.3.2.3). […] A.csv file containing information on the FP parameters per well, per time point, was then generated and used as input to the in-house data management system (SPEcII v.3.4, Unlimit-IT, Geel, Belgium), where descriptive statistics were calculated. Summary values at different time points after compound addition are expressed as percent change from baseline and shown as mean ± standard deviation (SD).
(§5) The nonparametric Wilcoxon-Mann Whitney Test was used to compare the percent change from the baseline (Δ%) value between the group treated with the compound at a given concentration and the group treated with the DMSO at each matching time points. A two-sided test at 5% significance level was considered. […] To assess the physiological relevance of changes, a tolerance interval of DMSO experiments was calculated at each time point, for each parameter. […] TIs indicate an interval where, with a certain confidence level (1- α = 0.95), a specified proportion (p = 0.80) of percent change for DMSO data falls. The lower and upper limits based on the TI values were used as cut-offs for the interpretation of the changes. For the cytotoxicity assays, measurements of fluorescence (after background fluorescence subtraction) from wells treated with the compounds were normalized by the average value of vehicle experiments (DMSO 0.1%) to obtain a DMSO-corrected, delta/delta percent change. Experiments from each condition, as delta/delta percent, were averaged and expressed as mean ± SD. Statistical analysis was performed using a non-parametric test (Kruskal-Wallis) and each treatment condition was compared to the relative DMSO 0.1%. Differences were considered statistically significant when the p-value was smaller than 0.05.

[2] = system: hiPSC-CMs (iCell-Cardiomyocytes^2); assay: MEA impedance (cytotoxicity readout) in hiPSC-CMs
Method: as §1, §2, §3, §4, §5

[3] = free therapeutic Cmax in humans; ref FDA-approved drug packages, PharmaPendium; cited from earlier work

COc1cc2c(Nc3ccc(Br)cc3F)ncnc2cc1OCC1CCN(C)CC1 [Vandetanib]
Flat T-wave-like, number of observations/total well numbers ([1]; 1 µM, 2h): 4/5 | BR (beating rate), % change from baseline ([1]; 1 µM, 24h): -59±5 % | Beating below threshold, number of observations/total well numbers ([1]; 1 µM, 24h): 0/5 | Cessation of beating, number of observations/total well numbers ([1]; 1 µM, 24h): 0/5 | EAD, number of observations/total well numbers ([1]; 1 µM, 24h): 1/5 | Flat T-wave-like, number of observations/total well numbers ([1]; 1 µM, 24h): 5/5 | BR (beating rate), % change from baseline ([1]; 1 µM, 48h): -65±2 % | Beating below threshold, number of observations/total well numbers ([1]; 1 µM, 48h): 0/5 | Cessation of beating, number of observations/total well numbers ([1]; 1 µM, 48h): 0/5 | EAD, number of observations/total well numbers ([1]; 1 µM, 48h): 2/5 | Flat T-wave-like, number of observations/total well numbers ([1]; 1 µM, 48h): 5/5 | BR (beating rate), % change from baseline ([1]; 1 µM, 72h): -68±2 % | Beating below threshold, number of observations/total well numbers ([1]; 1 µM, 72h): 1/5 | Cessation of beating, number of observations/total well numbers ([1]; 1 µM, 72h): 1/5 | EAD, number of observations/total well numbers ([1]; 1 µM, 72h): 0/5 | Flat T-wave-like, number of observations/total well numbers ([1]; 1 µM, 72h): 3/5 | BR (beating rate), % change from baseline ([1]; 1 µM, 96h): -68±0 % | Beating below threshold, number of observations/total well numbers ([1]; 1 µM, 96h): 0/5 | Cessation of beating, number of observations/total well numbers ([1]; 1 µM, 96h): 4/5 | EAD, number of observations/total well numbers ([1]; 1 µM, 96h): 0/5 | Flat T-wave-like, number of observations/total well numbers ([1]; 1 µM, 96h): 1/5 | time point from which cessation of beating occurred in all wells ([1]; 3 µM): 24 h | Beating below threshold, number of observations/total well numbers ([1]; 3 µM, 72h): 0/5 | Cessation of beating, number of observations/total well numbers ([1]; 3 µM, 72h): 5/5 | EAD, number of observations/total well numbers ([1]; 3 µM, 72h): 0/5 | Flat T-wave-like, number of observations/total well numbers ([1]; 3 µM, 72h): 0/5 | Beating below threshold, number of observations/total well numbers ([1]; 3 µM, 96h): 0/5 | Cessation of beating, number of observations/total well numbers ([1]; 3 µM, 96h): 5/5 | EAD, number of observations/total well numbers ([1]; 3 µM, 96h): 0/5 | Flat T-wave-like, number of observations/total well numbers ([1]; 3 µM, 96h): 0/5 | BR (beating rate), % change from baseline ([1]; 3 µM, 2h): -58±4 % | Beating below threshold, number of observations/total well numbers ([1]; 3 µM, 2h): 0/5 | Cessation of beating, number of observations/total well numbers ([1]; 3 µM, 2h): 0/5 | EAD, number of observations/total well numbers ([1]; 3 µM, 2h): 0/5 | EAD-like events ([1]; 3 µM, 2h): EAD-like events occurred | Flat T-wave-like, number of observations/total well numbers ([1]; 3 µM, 2h): 5/5 | BR (beating rate), % change from baseline ([1]; 3 µM, 24h): -71±1 % | Beating below threshold, number of observations/total well numbers ([1]; 3 µM, 24h): 0/5 | Cessation of beating, number of observations/total well numbers ([1]; 3 µM, 24h): 3/5 | EAD, number of observations/total well numbers ([1]; 3 µM, 24h): 0/5 | Flat T-wave-like, number of observations/total well numbers ([1]; 3 µM, 24h): 2/5 | Beating below threshold, number of observations/total well numbers ([1]; 3 µM, 48h): 1/5 | Cessation of beating, number of observations/total well numbers ([1]; 3 µM, 48h): 4/5 | EAD, number of observations/total well numbers ([1]; 3 µM, 48h): 0/5 | Flat T-wave-like, number of observations/total well numbers ([1]; 3 µM, 48h): 0/5 | Imp (impedance), % change from baseline ([2]; 0.1 µM, 2h): -3±2% | Imp (impedance), % change from baseline ([2]; 0.1 µM, 24h): -9±2% | Imp (impedance), % change from baseline ([2]; 0.1 µM, 48h): -7±2% | Imp (impedance), % change from baseline ([2]; 0.1 µM, 72h): -9±3% | Imp (impedance), % change from baseline ([2]; 0.1 µM, 96h): -6±3% | Imp (impedance), % change from baseline ([2]; 0.3 µM, 2h): -2±1% | Imp (impedance), % change from baseline ([2]; 0.3 µM, 24h): -9±4% | Imp (impedance), % change from baseline ([2]; 0.3 µM, 48h): -3±3% | Imp (impedance), % change from baseline ([2]; 0.3 µM, 72h): -5±4% | Imp (impedance), % change from baseline ([2]; 0.3 µM, 96h): -6±5% | Imp (impedance), % change from baseline ([2]; 1 µM, 2h): -3±2% | Imp (impedance), % change from baseline ([2]; 1 µM, 24h): -11±3% | Imp (impedance), % change from baseline ([2]; 1 µM, 48h): -13±4% | Imp (impedance), % change from baseline ([2]; 1 µM, 72h): -20±4 % | Imp (impedance), % change from baseline ([2]; 1 µM, 96h): -20±5% | Imp (impedance), % change from baseline ([2]; 3 µM, 72h): -44±7 % | Imp (impedance), % change from baseline ([2]; 3 µM, 96h): -53±5 % | Imp (impedance), % change from baseline ([2]; 3 µM, 2h): 2±4% | Imp (impedance), % change from baseline ([2]; 3 µM, 24h): -16±3% | Imp (impedance), % change from baseline ([2]; 3 µM, 48h): -30±5 % | Free Cmax [3]: 400 nM
